Data from US4490291A, “Nonapeptide amides” (Takeda Chemical Industries, Ltd., priority 1973, dated 1984).
Non-standard residues stand in square brackets, D forms with d. Residues, ends and D or L forms follow the SMILES beside them. pGlu = O=C1CC[C@@H](C(=O)O)N1

These compounds were tested on Sprague-Dawley rats (4-day cycling female) (assay: Ovulation-inducing activity in rats, ED50 compared with LH-RH). Settings: product of process (III) compared with product of process (I) of Example 5(c).
Type: in vivo
Method: Ovulation-inducing activity is determined in Sprague-Dawley rats (4-day cycling female) in which the injection of the compound was made subcutaneously at 14:30 on the day of diestrous, and the ovulated ova in the ampilla of the oviduct were examined on the morning of the next day. The results (ED50) were compared with that (ED50) of LH-RH itself. The assay results on the object compounds are as follows.

Row | Compound | ED50 value of ovulation inducing activity
1 | CCNC(=O)[C@@H]1CCCN1C(=O)[C@H](CCCNC(=N)N)NC(=O)[C@H](CC(C)C)NC(=O)[C@@H](C)NC(=O)[C@H](Cc1ccccc1)NC(=O)[C@H](CO)NC(=O)[C@H](Cc1c[nH]c2ccccc12)NC(=O)[C@H](Cc1c[nH]cn1)NC(=O)[C@@H]1CCC(=O)N1 [His Phe Leu ethyl, (Pyr)Glu--His--Trp--Ser--Phe--(D)--Ala--Leu--Arg--Pro--NH--CH2 --CH3] ([pGlu]HWSF[dA]LRP-NHEt) | identical

Same assay, conditions: subcutaneous injection at 14:30 on the day of diestrous; ovulated ova in oviduct examined next morning; natural LH-RH control = 100%

Row | Compound | Relative ovulation-inducing activity (ED50 compared with that of LH-RH itself)
2 | CCNC(=O)[C@@H]1CCCN1C(=O)[C@H](CCCNC(=N)N)NC(=O)[C@@H](NC(=O)[C@@H](C)NC(=O)[C@H](Cc1ccccc1)NC(=O)[C@H](CO)NC(=O)[C@H](Cc1c[nH]c2ccccc12)NC(=O)[C@H](Cc1c[nH]cn1)NC(=O)[C@@H]1CCC(=O)N1)[C@@H](C)CC [His Phe Ile ethyl, (Pyr)Glu--His--Trp--Ser--Phe--(D)--Ala--Ile--Arg--Pro--NHCH2 CH3] ([pGlu]HWSF[dA]IRP-NHEt) | 3,200%
3 | (Pyr)Glu--p--NH2 --Phe--Trp--Ser--Tyr--(D)--Ala--Leu--Arg--Pro--NH--CH2 --CH3 [p-NH2 --Phe Tyr Leu ethyl] | 2,150%
4 | CC(C)C[C@H](NC(=O)CNC(=O)[C@H](Cc1ccc(O)cc1)NC(=O)[C@H](CO)NC(=O)[C@H](Cc1c[nH]c2ccccc12)NC(=O)[C@H](Cc1c[nH]cn1)NC(=O)[C@@H]1CCC(=O)N1)C(=O)N[C@@H](CCCNC(=N)N)C(=O)N1CCC[C@H]1C(=O)NCC(N)=O [natural LH--RH, (Pyr)Glu-His-Trp-Ser-Tyr-Gly-Leu-Arg-Pro-Gly-NH2, reference compound] | 100%
5 | CCNC(=O)[C@@H]1CCCN1C(=O)[C@H](CCCNC(=N)N)NC(=O)[C@H](CC(C)C)NC(=O)[C@@H](C)NC(=O)[C@H](Cc1ccc(O)cc1)NC(=O)[C@H](CO)NC(=O)[C@H](Cc1c[nH]c2ccccc12)NC(=O)[C@H](Cc1ccc(O)cc1)NC(=O)[C@@H]1CCC(=O)N1 [Tyr Tyr Leu ethyl, (Pyr)Glu--Tyr--Trp--Ser--Tyr--(D)--Ala--Leu--Arg--Pro--NHCH2 CH3] ([pGlu]YWSY[dA]LRP-NHEt) | 2,010%
6 | CCNC(=O)[C@@H]1CCCN1C(=O)[C@H](CCCNC(=N)N)NC(=O)[C@H](CC(C)C)NC(=O)[C@@H](C)NC(=O)[C@H](Cc1ccccc1)NC(=O)[C@H](CO)NC(=O)[C@H](Cc1c[nH]c2ccccc12)NC(=O)[C@H](Cc1c[nH]cn1)NC(=O)[C@@H]1CCC(=O)N1 [His Phe Leu ethyl, (Pyr)Glu--His--Trp--Ser--Phe--(D)--Ala--Leu--Arg--Pro--NH--CH2 --CH3] ([pGlu]HWSF[dA]LRP-NHEt) | 5,810%
7 | CCCC[C@H](NC(=O)[C@@H](C)NC(=O)[C@H](Cc1ccc(O)cc1)NC(=O)[C@H](CO)NC(=O)[C@H](Cc1c[nH]c2ccccc12)NC(=O)[C@H](Cc1c[nH]cn1)NC(=O)[C@@H]1CCC(=O)N1)C(=O)N[C@@H](CCCNC(=N)N)C(=O)N1CCC[C@H]1C(=O)NCC [His Tyr Nle ethyl, (Pyr)Glu--His--Trp--Ser--Tyr--(D)--Ala--Nle--Arg--Pro--NHCH2 CH3] | 4,800%
8 | CCNC(=O)[C@@H]1CCCN1C(=O)[C@H](CCCNC(=N)N)NC(=O)[C@H](CC(C)C)NC(=O)[C@@H](C)NC(=O)[C@H](Cc1ccc(O)cc1)NC(=O)[C@H](CO)NC(=O)[C@H](Cc1c[nH]c2ccccc12)NC(=O)[C@H](Cc1c[nH]cn1)NC(=O)[C@@H]1CCC(=O)N1 [His Tyr Leu ethyl, (Pyr)Glu--His--Trp--Ser--Tyr--(D)--Ala--Leu--Arg--Pro--NH--CH2 --CH3] | 6,100%
